Legend:
[1] = tested on: IL-17A-induced G-CSF production in human normal keratinocyte (NHK); assay: NHK Assay: IL-17A-induced G-CSF production in human normal keratinocytes; assay type: cell-based; conditions: adult normal human keratinocytes, IL-17A 5 ng/mL, 24 h, simple average if tested more than once
Outline: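 Compound is first combined with recombinant human IL-17A for 1 h at rt, and the mix is added to adult normal human keratinocytes so that IL-17A is 5 ng/mL. After 24 h at 37° C in 5% FBS, G-CSF released into the medium is read by HTRF and IC50 derived.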

[2] = target: IL-17A(FLAG-Tagged): IL-17RA(His-Tagged) (Homo sapiens, UniProt Q16552, K93Q); assay: IL-17A(FLAG-Tagged): IL-17RA(His-Tagged) Binding Disruption Eu-HTRF Assay; conditions: IL-17A/IL-17RA binding disruption, simple average if tested more than once
Chain of UniProt Q16552 (Q16552 with tags, fused parts or gaps K93Q): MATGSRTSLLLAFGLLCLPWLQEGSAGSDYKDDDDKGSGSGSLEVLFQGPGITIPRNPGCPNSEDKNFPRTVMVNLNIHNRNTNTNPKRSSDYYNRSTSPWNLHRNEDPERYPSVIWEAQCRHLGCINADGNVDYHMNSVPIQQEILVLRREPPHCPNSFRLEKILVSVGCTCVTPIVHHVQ
Outline: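 IC50 comes from a one-site competition fit of the HTRF 665/620 nm ratio. Compound dilutions (2-fold, 22 points) were held 1 h rt with FLAG-tagged IL-17A dimer, then His-tagged IL-17RA plus Eu-cryptate anti-FLAG and D2 anti-His antibodies were added for 2 h rt.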

Row | IC50 [2] | Structure (SMILES) | IC50 [1] | IC50 ([1]; Homo sapiens, Keratinocyte)
1 | 270 nM | [2H]C([2H])([2H])C([2H])([2H])n1nccc1C(=O)N[C@H](c1cn2ncc(C(COC)NC(=O)CC3CC(F)(F)C3)cc2n1)C1CCC(F)(F)CC1 (single isomer, unassigned) [Example 523, N—((S)-(7-((R*)-1-(2-(3,3-Difluorocyclobutyl)acetamido)-2-methoxyethyl)imidazo[1,2-b]pyridazin-2-yl)(4,4-difluorocyclohexyl)methyl)-1-(ethyl-d5)-1H-pyrazole-5-carboxamide] | 110 nM | 
2 | 140 nM | O=C(CC1CC(F)(F)C1)NC(c1cnn2cc([C@@H](NC(=O)c3cnn(CCC(F)(F)F)n3)C3CCC(F)(F)CC3)nc2c1)C1CC1 (single isomer, unassigned) [Example 22, N—((S)-(7-((R*)-Cyclopropyl(2-(3,3-difluorocyclobutyl)acetamido)methyl)imidazo[1,2-b]pyridazin-2-yl)(4,4-difluorocyclohexyl)methyl)-2-(3,3,3-trifluoropropyl)-2H-1,2,3-triazole-4-carboxamide] |  | 320 nM
3 | 200 nM | Cc1nonc1C(=O)N[C@H](c1cn2ncc([C@H](NC(=O)COCC(F)(F)F)C3CC3)cc2n1)C1CCC(F)(F)CC1 [Example 327, N—((S)-(7-((R)-Cyclopropyl(2-(2,2,2-trifluoroethoxy)acetamido)methyl)imidazo[1,2-b]pyridazin-2-yl)(4,4-difluorocyclohexyl)methyl)-4-methyl-1,2,5-oxadiazole-3-carboxamide] |  | 890 nM
4 | 11000 nM | Cc1c(C(=O)N[C@H](c2cn3ncc(C(NC(=O)CCC(F)(F)F)C4CC4)cc3n2)C2CCC(F)(F)CC2)cnn1CCC(F)(F)F (single isomer, unassigned) [Example 53, N—((S)-(7-((S*)-Cyclopropyl(4,4,4-trifluorobutanamido)methyl)imidazo[1,2-b]pyridazin-2-yl)(4,4-difluorocyclohexyl)methyl)-5-methyl-1-(3,3,3-trifluoropropyl)-1H-pyrazole-4-carboxamide] | > 20000 nM | 
5 | 150 nM | N#Cc1cccc(C(=O)N[C@H](c2cn3ncc([C@H](NC(=O)CCC(F)(F)F)C4CC4)cc3n2)C2CCC(F)(F)CC2)c1 [Example 188, 3-Cyano-N—((S)-(7-((R)-cyclopropyl(4,4,4-trifluorobutanamido)methyl)imidazo[1,2-b]pyridazin-2-yl)(4,4-difluorocyclohexyl)methyl)benzamide] |  | 750 nM
6 | 730 nM | Cc1nonc1C(=O)N[C@H](c1cn2ncc([C@H](NC(=O)[C@@H](F)[C@@H](C)C(F)(F)F)C3CC3)cc2n1)C1CCC(F)(F)CC1 (relative stereo) [Example 354, N—((S)-(7-((R)-Cyclopropyl((2S*,3R*)-2,4,4,4-tetrafluoro-3-methylbutanamido)methyl)imidazo[1,2-b]pyridazin-2-yl)(4,4-difluorocyclohexyl)methyl)-4-methyl-1,2,5-oxadiazole-3-carboxamide] |  | 2700 nM
7 | 140 nM | O=C(CCC(F)F)N[C@@H](c1cnn2cc([C@@H](NC(=O)c3conc3COC(F)F)C3CCC(F)(F)CC3)nc2c1)C1CC1 [Example 287, N—((S)-(7-((R)-Cyclopropyl(4,4-difluorobutanamido)methyl)imidazo[1,2-b]pyridazin-2-yl)(4,4-difluorocyclohexyl)methyl)-3-((difluoromethoxy)methyl)isoxazole-4-carboxamide] |  | 410 nM
8 | 48 nM | O=C(CCC(F)(F)F)N[C@@H](c1cnn2cc([C@@H](NC(=O)c3ccnc(OCC(F)(F)F)c3)C3CCC(F)(F)CC3)nc2c1)C1CC1 [Example 171, N—((S)-(7-((R)-Cyclopropyl(4,4,4-trifluorobutanamido)methyl)imidazo[1,2-b]pyridazin-2-yl)(4,4-difluorocyclohexyl)methyl)-2-(2,2,2-trifluoroethoxy)isonicotinamide] |  | 320 nM
9 | 57 nM | CCOCC(NC(=O)CC1CC(F)(F)C1)c1cnn2cc([C@@H](NC(=O)c3nonc3C3CC3)C3CCC(F)(F)CC3)nc2c1 (single isomer, unassigned) [Example 527, 4-Cyclopropyl-N—((S)-(7-((R*)-1-(2-(3,3-difluorocyclobutyl)acetamido)-2-ethoxyethyl)imidazo[1,2-b]pyridazin-2-yl)(4,4-difluorocyclohexyl)methyl)-1,2,5-oxadiazole-3-carboxamide] | 110 nM | 
10 | 270 nM | Cc1nonc1C(=O)N[C@H](c1cn2ncc([C@H](NC(=O)CC(C)CC(F)(F)F)C3CC3)cc2n1)C1CCC(F)(F)CC1 (single isomer, unassigned) [Example 350, N—((S)-(7-((R)-Cyclopropyl((R*)-5,5,5-trifluoro-3-methylpentanamido)methyl)imidazo[1,2-b]pyridazin-2-yl)(4,4-difluorocyclohexyl)methyl)-4-methyl-1,2,5-oxadiazole-3-carboxamide] |  | 660 nM
11 | 580 nM | O=C(CCC(F)(F)F)N[C@@H](c1cnn2cc([C@@H](NC(=O)c3ccncc3F)C3CCC(F)(F)CC3)nc2c1)C1CC1 [Example 195, N—((S)-(7-((R)-Cyclopropyl(4,4,4-trifluorobutanamido)methyl)imidazo[1,2-b]pyridazin-2-yl)(4,4-difluorocyclohexyl)methyl)-3-fluoroisonicotinamide] |  | 1600 nM
12 | 52 nM | Cc1nonc1C(=O)N[C@H](c1cn2ncc([C@H](NC(=O)C(F)CC3CC3)C3CC3)cc2n1)C1CCC(F)(F)CC1 (single isomer, unassigned) [Example 344, N—((S)-(7-((R)-Cyclopropyl((R*)-3-cyclopropyl-2-fluoropropanamido)methyl)imidazo[1,2-b]pyridazin-2-yl)(4,4-difluorocyclohexyl)methyl)-4-methyl-1,2,5-oxadiazole-3-carboxamide] | 230 nM | 
13 | 3500 nM | Cc1nonc1C(=O)N[C@H](c1cn2ncc([C@H](NC(=O)[C@@H]3CC[C@@H]3F)C3CC3)cc2n1)C1CCC(F)(F)CC1 (relative stereo) [Example 337, N—((S)-(7-((R)-Cyclopropyl((1S*,2S*)-2-fluorocyclobutane-1-carboxamido)methyl)imidazo[1,2-b]pyridazin-2-yl)(4,4-difluorocyclohexyl)methyl)-4-methyl-1,2,5-oxadiazole-3-carboxamide] |  | > 20000 nM
14 | 2000 nM | COc1cncc(C(=O)N[C@H](c2cn3ncc([C@H](NC(=O)CCC(F)(F)F)C4CC4)cc3n2)C2CCC(F)(F)CC2)n1 [Example 215, N—((S)-(7-((R)-Cyclopropyl(4,4,4-trifluorobutanamido)methyl)imidazo[1,2-b]pyridazin-2-yl)(4,4-difluorocyclohexyl)methyl)-6-methoxypyrazine-2-carboxamide] |  | > 20000 nM
15 | 180 nM | CC(C)n1nccc1C(=O)N[C@@H](CC(C)(C)C(F)(F)F)c1cn2ncc([C@H](NC(=O)CC3CC(F)(F)C3)C3CC3)cc2n1 [Example 543, N—((S)-1-(7-((R)-Cyclopropyl(2-(3,3-difluorocyclobutyl)acetamido)methyl)imidazo[1,2-b]pyridazin-2-yl)-4,4,4-trifluoro-3,3-dimethylbutyl)-1-isopropyl-1H-pyrazole-5-carboxamide] |  | 72 nM
16 | 120 nM | O=C(CCC(F)(F)F)N[C@@H](c1cnn2cc([C@@H](NC(=O)c3cnnn3CCCF)C3CCC(F)(F)CC3)nc2c1)C1CC1 [Example 112, N—((S)-(7-((R)-Cyclopropyl(4,4,4-trifluorobutanamido)methyl)imidazo[1,2-b]pyridazin-2-yl)(4,4-difluorocyclohexyl)methyl)-1-(3-fluoropropyl)-1H-1,2,3-triazole-5-carboxamide] |  | 160 nM
17 | 4900 nM | O=C(CCC(F)(F)F)NC(c1cnn2cc([C@@H](NC(=O)c3cnn(CCC(F)(F)F)c3)C3CCC(F)(F)CC3)nc2c1)C1CC1 (single isomer, unassigned) [Example 7, N—((S)-(7-((S*)-Cyclopropyl(4,4,4-trifluorobutanamido)methyl)imidazo[1,2-b]pyridazin-2-yl)(4,4-difluorocyclohexyl)methyl)-1-(3,3,3-trifluoropropyl)-1H-pyrazole-4-carboxamide] | > 20000 nM | 
18 | 34 nM | O=C(CCC(F)(F)F)NC(c1cnn2cc([C@@H](NC(=O)c3nnsc3C3CC3)C3CCC(F)(F)CC3)nc2c1)C1CC1 (single isomer, unassigned) [Example 466, 5-Cyclopropyl-N—((S)-(7-((R*)-cyclopropyl(4,4,4-trifluorobutanamido)methyl)imidazo[1,2-b]pyridazin-2-yl)(4,4-difluorocyclohexyl)methyl)-1,2,3-thiadiazole-4-carboxamide] |  | 210 nM
19 | 310 nM | CO[C@@H](C)[C@@H](NC(=O)CC1CC(F)(F)C1)c1cnn2cc([C@@H](NC(=O)c3ccnn3C(C)C)C3CCC(F)(F)CC3)nc2c1 [Example 322, N—((S)-(7-((1S,2S)-1-(2-(3,3-Difluorocyclobutyl)acetamido)-2-methoxypropyl)imidazo[1,2-b]pyridazin-2-yl)(4,4-difluorocyclohexyl)methyl)-1-isopropyl-1H-pyrazole-5-carboxamide] |  | 96 nM
20 | 56 nM | Cc1nonc1C(=O)N[C@H](c1cn2ncc([C@H](NC(=O)C[C@H]3C[C@H](F)C3)C3CC3)cc2n1)C1CCC(F)(F)CC1 (single isomer, unassigned) [Example 266] |  | 290 nM
